These results are taken from ChEMBL document CHEMBL4033674, “Bivalent O-glycoside mimetics with S/disulfide/Se substitutions and aromatic core: Synthesis, molecular modeling and inhibitory activity on biomedically relevant lectins in assays of increasing physiological relevance” (Bioorg Med Chem, 2017).

The target in test [1] is Galectin-1 (Homo sapiens) (UniProt P09382). Nature of the test: Inhibition of biotinylated proto type galectin-1 in human Capan-1 cells after 30 mins by FACS analysis relative to control. The test is classed as cell-based. (In flow cytometry, cells or beads pass a laser one at a time.)
In test [2] the target is Galectin-3 (Homo sapiens) (UniProt P17931). Briefly: Inhibition of biotinylated chimera type galectin-3 in human Capan-1 cells after 30 mins by FACS analysis relative to control. The test is classed as cell-based.
Test [3] addresses T1, Galectin-8 (Homo sapiens) (UniProt O00214).
T1 sequence (whole entry): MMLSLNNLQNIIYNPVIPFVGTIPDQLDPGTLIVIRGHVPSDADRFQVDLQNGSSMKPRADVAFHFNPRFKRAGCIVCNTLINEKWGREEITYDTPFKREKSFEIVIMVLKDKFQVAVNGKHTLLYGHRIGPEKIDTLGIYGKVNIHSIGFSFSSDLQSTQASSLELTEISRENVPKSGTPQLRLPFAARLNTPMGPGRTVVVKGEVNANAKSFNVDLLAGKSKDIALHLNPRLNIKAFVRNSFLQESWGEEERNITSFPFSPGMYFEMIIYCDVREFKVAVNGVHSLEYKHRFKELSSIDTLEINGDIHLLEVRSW
Briefly: Inhibition of biotinylated tandem repeat type galectin-8 in human Capan-1 cells after 30 mins by FACS analysis relative to control. The test is classed as cell-based.

Test [4] can be described thus: Inhibition of lectin in C57BL/6 mouse kidney using SK-5100 as substrate incubated for 30 mins by VAA staining based microscopic analysis.
For a further test, the target named is Galectin-3 (Mus musculus, UniProt P16110). Nature of the test: Inhibition of galectin-3 in C57BL/6 mouse jejunum using SK-5100 as substrate incubated for 30 mins by VAA staining based microscopic analysis.
Test [5] concerns the target Galectin-1 (Mus musculus) (UniProt P16045). Nature of the test: Inhibition of galectin-1 in C57BL/6 mouse jejunum using SK-5100 as substrate incubated for 30 mins by VAA staining based microscopic analysis relative to free lactose.
The target in test [6] is T2, Galectin-8 (Mus musculus) (UniProt Q9JL15).
T2 sequence (whole entry): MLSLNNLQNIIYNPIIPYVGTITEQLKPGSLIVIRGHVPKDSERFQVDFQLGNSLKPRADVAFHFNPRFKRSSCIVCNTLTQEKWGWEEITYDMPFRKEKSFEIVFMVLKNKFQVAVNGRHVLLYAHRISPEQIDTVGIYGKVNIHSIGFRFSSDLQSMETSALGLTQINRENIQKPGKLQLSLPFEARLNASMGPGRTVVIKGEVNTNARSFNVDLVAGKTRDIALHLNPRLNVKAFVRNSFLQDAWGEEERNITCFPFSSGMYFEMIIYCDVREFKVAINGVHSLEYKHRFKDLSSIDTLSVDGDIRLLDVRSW
Briefly: Inhibition of galectin-8 in C57BL/6 mouse jejunum using SK-5100 as substrate incubated for 30 mins by VAA staining based microscopic analysis relative to free lactose.

Activity calls are given as the source filed them. The rule behind the calls is not given here.

Galectin-1 (Homo sapiens), sequence (P09382 whole entry): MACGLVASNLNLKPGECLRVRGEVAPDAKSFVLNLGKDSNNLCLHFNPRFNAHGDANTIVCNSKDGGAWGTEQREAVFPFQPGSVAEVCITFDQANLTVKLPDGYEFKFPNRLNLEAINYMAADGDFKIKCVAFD
Galectin-3 (Homo sapiens), sequence (P17931 whole entry): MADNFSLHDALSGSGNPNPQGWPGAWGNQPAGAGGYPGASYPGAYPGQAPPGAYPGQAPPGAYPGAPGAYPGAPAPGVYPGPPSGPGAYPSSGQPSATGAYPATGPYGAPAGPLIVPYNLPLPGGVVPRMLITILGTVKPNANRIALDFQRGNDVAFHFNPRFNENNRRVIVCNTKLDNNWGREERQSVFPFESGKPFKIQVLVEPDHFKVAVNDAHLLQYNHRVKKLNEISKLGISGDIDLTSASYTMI
Galectin-3, sequence (P16110 whole entry): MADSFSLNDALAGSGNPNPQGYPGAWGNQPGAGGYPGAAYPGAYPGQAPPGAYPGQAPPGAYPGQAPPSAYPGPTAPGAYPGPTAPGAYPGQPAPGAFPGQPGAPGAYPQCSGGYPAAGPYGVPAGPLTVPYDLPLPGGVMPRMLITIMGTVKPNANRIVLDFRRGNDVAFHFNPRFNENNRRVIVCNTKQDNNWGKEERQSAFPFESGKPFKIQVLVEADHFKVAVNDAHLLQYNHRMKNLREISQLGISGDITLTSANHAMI
Galectin-1 (Mus musculus), sequence (P16045 whole entry): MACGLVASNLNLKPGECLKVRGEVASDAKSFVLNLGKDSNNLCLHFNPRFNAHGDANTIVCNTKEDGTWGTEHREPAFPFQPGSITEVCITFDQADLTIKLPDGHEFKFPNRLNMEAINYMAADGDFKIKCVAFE

For the compound `OC[C@H]1O[C@@H](SSCc2ccc(CSS[C@@H]3O[C@H](CO)[C@H](O)[C@H](O)[C@H]3O)c3ccccc23)[C@H](O)[C@@H](O)[C@H]1O`, the fold change (FC) in test [1], in test [2] and in test [3] was 2.5 to 10 throughout. The IC50 (commonly the point on the concentration scale where inhibition reaches its midpoint) in test [4] lay within 500 to 1000 µM.

Turning to `O=C[C@H](O)[C@@H](O)[C@@H](O)[C@H](O)CO` [GALACTOSE], the IC50 in test [4] came to 5000 µM. That is a millimolar value.

With `OC[C@H]1O[C@@H](O[C@H]2[C@H](O)[C@@H](O)[C@H](SSCc3ccc(CSS[C@@H]4O[C@H](CO)[C@@H](O[C@@H]5O[C@H](CO)[C@H](O)[C@H](O)[C@H]5O)[C@H](O)[C@H]4O)c4ccccc34)O[C@@H]2CO)[C@H](O)[C@@H](O)[C@H]1O`, the inhibition result in test [1], in test [2] and in test [3] was “Active” in each case. At Galectin-3, this compound yielded an IC50 of 25 µM. For the same compound, the fold change (FC) turned out to be 6 in test [5] and 100 in test [6].

Regarding `OC[C@H]1O[C@@H](SSCc2cccc3c(CSS[C@@H]4O[C@H](CO)[C@H](O)[C@H](O)[C@H]4O)cccc23)[C@H](O)[C@@H](O)[C@H]1O`, the fold change (FC) in test [1], in test [2] and in test [3] was 2.5 to 10 in each case.

With `OC[C@H]1O[C@@H](SCc2ccc(CS[C@@H]3O[C@H](CO)[C@H](O)[C@H](O)[C@H]3O)c3ccccc23)[C@H](O)[C@@H](O)[C@H]1O`, the fold change (FC) in test [1], in test [2] and in test [3] was 2.5 to 10 in each case.

As for `OC[C@H]1O[C@@H]([Se]Cc2cccc3c(C[Se][C@@H]4O[C@H](CO)[C@H](O)[C@H](O)[C@H]4O)cccc23)[C@H](O)[C@@H](O)[C@H]1O`, the fold change (FC) in test [1], in test [2] and in test [3] was 2.5 to 10 throughout.

As for `OC[C@H]1O[C@@H]([Se]Cc2cccc(C[Se][C@@H]3O[C@H](CO)[C@H](O)[C@H](O)[C@H]3O)c2)[C@H](O)[C@@H](O)[C@H]1O`, the fold change (FC) in test [1], in test [2] and in test [3] was 2.5 to 10 each time.

Regarding `OC[C@H]1O[C@@H]([Se]Cc2ccc3cc(C[Se][C@@H]4O[C@H](CO)[C@H](O)[C@H](O)[C@H]4O)ccc3c2)[C@H](O)[C@@H](O)[C@H]1O`, the fold change (FC) in test [1], in test [2] and in test [3] was 2.5 to 10 throughout. In test [4], this compound returned an IC50 of 500 to 1000 µM.

With `OC[C@H]1O[C@@H]([Se]Cc2ccc(C[Se][C@@H]3O[C@H](CO)[C@H](O)[C@H](O)[C@H]3O)c3ccccc23)[C@H](O)[C@@H](O)[C@H]1O`, the fold change (FC) in test [1], in test [2] and in test [3] was 2.5 to 10 each time.

As for `OC[C@H]1O[C@@H](O[C@H]2[C@H](O)[C@@H](O)[C@H](SCc3ccc(CS[C@@H]4O[C@H](CO)[C@@H](O[C@@H]5O[C@H](CO)[C@H](O)[C@H](O)[C@H]5O)[C@H](O)[C@H]4O)c4ccccc34)O[C@@H]2CO)[C@H](O)[C@@H](O)[C@H]1O`, the inhibition entry in test [1], in test [2] and in test [3] was “inactive” in each case. This compound also yielded a 50% inhibitory concentration (IC50) on Galectin-3 of 50 µM. Besides, in test [6], the fold change (FC) stood at 50.

As to `OC[C@H]1O[C@@H]([Se]Cc2ccc(C[Se][C@@H]3O[C@H](CO)[C@H](O)[C@H](O)[C@H]3O)cc2)[C@H](O)[C@@H](O)[C@H]1O`, the fold change (FC) in test [1], in test [2] and in test [3] was 2.5 to 10 in each case.
